The source of these data is patent publication US11691992B2 (Anacor Pharmaceuticals, Inc., priority 2017, dated 2023).

Bounds are passed on as bounds.

One assay has as its system luciferase-expressing L. major parasites developing intracellularly inside RAW 264.7 macrophages. The experiment in a line: Leishmania major intracellular amastigote assay in RAW 264.7 macrophages (luciferase). Format: cell-based. The note with it: RAW264.7, 96 hours, read-out: IC50: I Org. intracellular amastigote Growth L. major, 4 d. An excerpt:
Example 107. Assay for Leishmania major Intracellular Amastigote Assay in RAW 264.7 Macrophages
The intracellular amastigote assay is a microtiter plate drug sensitivity assay that uses the activity of luciferase as a measure of proliferation of luciferase-expressing L. major parasites developing intracellularly inside RAW 264.7 macrophages in the presence of antileishmanial drugs or experimental compounds. (Buckner, F. S., and A. J. Wilson. Am J Prop Med Hyg, 2005, 72(5): 600-605.) As the activity of luciferase and its associated luminescence after addition of the substrate, luciferin, is relative to parasite growth, a test compound that inhibits the growth of the parasite will result in a lower luminescence. The luciferase-expressing L. major parasite used in this assay is genetically modified by adding the luciferase coding region to the pLEXSY-hyg2 vector (Jena Biosciences). The luciferase expression construct was created by digesting the luciferase coding region (1.66 kbp) of pGL3-Basic (Promega) by using two restriction enzymes, NcoI/EagI, followed by electrophoretic separation of the luciferase coding region on a 1% agarose gel. The luciferase coding region was then ligated into pLEXSY-hyg2 vector (Jena Biosciences) which had previously been digested with NcoI/NotI. The vector was linearized with SwaI and subsequently gel purified prior to transfection into L. major parasites. Transfections were carried out by electroporation at 480V, 13Ω, and 500 μF (0.4 mL of 1×10^8 parasites/mL, and 0.1 mL of 10 μg DNA). Selection for transfectants was then carried out using hygromycin B (100 μg/mL). RAW 264.7 macrophages were cultured in DMEM media (ATCC Cat #30-2002) supplemented with heat-inactivated 10% FBS (Invitrogen Cat #10438-034). To begin the assay, macrophages were harvested from culture by removing all spent media, adding in 10 mL fresh media, scraping cells, and counted using Trypan Blue. The cells were resuspended in DMEM/10% HIFBS media at 2.0×10^5 cells/mL, and then dispensed in a volume of 50 μL to yield a final concentration of 10,000 macrophages/well in 384 well tissue-culture treated sterile white plates (Nunc Cat #12-565-343) using a Tecan EVO Freedom robotics system. The plates were then incubated at 37° C. overnight in 5% CO2 atmosphere for 24 hours. After overnight incubation, the media was removed from each well using the Tecan EVO Freedom robot, and L. major promastigotes were added to each well and allowed to invade the RAW macrophages. Promastigotes were cultured in Schneider's medium (Invitrogen Cat #11720-067) supplemented with 20% heat inactivated FBS. Metacyclic stage promastigotes provide the best invasion for this assay, and cultures should be grown to increase the percentage of metacyclic promastigotes for best results. Promastigotes were harvested from culture, counted, suspended at 2×10^6 promastigotes/mL in DMEM/HIFBS media, and 100,000 promastigotes were dispensed per well in a volume of 50 μL. After overnight incubation, the media was removed from each well using the Tecan Freedom EVO robot, and each well was subsequently washed three times with 40 μF of fresh DMEM/HIFBS medium to remove all extracellular promastigotes. After the third wash, 69.2 μF of DMEM/HIFBS medium was added to each well using the Tecan EVO Freedom robot. Drug plates were prepared with the Tecan EVO Freedom using sterile 96 well plates containing twelve duplicate two-fold serial dilutions of each test compound suspended in DMSO. 7.8 μF of diluted test compound was added to the 69.2 μF of media present in each well providing a 10 fold final dilution of compound. The final concentration range tested was 0.5 to 10,000 ng/ml for all assays. The plates were next incubated at 37° C. and 5% CO2 for 96 hours. After 96 hours of incubation, 7.5 μF of a luciferin solution (Caliper Fife Science) diluted to 150 μg/mF was added to each well, and the plates were incubated for 30 minutes at 37° C., in the dark. […]
As a reminder, the IC50 is the concentration that gives 50% inhibition. On to `CCn1nnc(C(=O)Nc2ccc3c(c2)B(O)OC3)c1C(F)(F)F` [Example 28, 1-ethyl-N-(1-hydroxy-1,3-dihydrobenzo[c][1,2]oxaborol-6-yl)-5-(trifluoromethyl)-1H-1,2,3-triazole-4-carboxamide], for which the IC50 was not above 1000 nM.

In the case of `O=C(Nc1ccc2c(c1)B(O)OC2)c1nnn(C2CC2)c1C(F)(F)F` [Example 29, 1-cyclopropyl-N-(1-hydroxy-1,3-dihydrobenzo[c][1,2]oxaborol-6-yl)-5-(trifluoromethyl)-1H-1,2,3-triazole-4-carboxamide], the half-inhibitory concentration (IC50) is not above 1000 nM.

Take `O=C(Nc1ccc2c(c1)B(O)OC2)c1nnn(C2CCCC2)c1C(F)(F)F` [Example 30, 1-cyclopentyl-N-(1-hydroxy-1,3-dihydrobenzo[c][1,2]oxaborol-6-yl)-5-(trifluoromethyl)-1H-1,2,3-triazole-4-carboxamide]: the IC50 was not above 1000 nM.

With `CCCn1nnc(C(=O)Nc2ccc3c(c2)B(O)OC3)c1C(F)(F)F` [Example 31, N-(1-hydroxy-1,3-dihydrobenzo[c][1,2]oxaborol-6-yl)-1-propyl-5-(trifluoromethyl)-1H-1,2,3-triazole-4-carboxamide], the IC50 is not above 1000 nM.

For the compound `CC(C)n1nnc(C(=O)Nc2ccc3c(c2)B(O)OC3)c1C(F)(F)F` [Example 32, N-(1-hydroxy-1,3-dihydrobenzo[c][1,2]oxaborol-6-yl)-1-isopropyl-5-(trifluoromethyl)-1H-1,2,3-triazole-4-carboxamide], the half-inhibitory concentration (IC50) is not above 1000 nM.

In the case of `COCCn1nnc(C(=O)Nc2ccc3c(c2)B(O)OC3)c1C(F)(F)F` [Example 33, N-(1-hydroxy-1,3-dihydrobenzo[c][1,2]oxaborol-6-yl)-1-(2-methoxyethyl)-5-(trifluoromethyl)-1H-1,2,3-triazole-4-carboxamide], the IC50 is not above 1000 nM.

Regarding `O=C(Nc1ccc2c(c1)B(O)OC2)c1nnn(CC2CC2)c1C(F)(F)F` [Example 34, 1-(cyclopropylmethyl)-N-(1-hydroxy-1,3-dihydrobenzo[c][1,2]oxaborol-6-yl)-5-(trifluoromethyl)-1H-1,2,3-triazole-4-carboxamide], the half-inhibitory concentration (IC50) was not above 1000 nM.

As for `O=C(Nc1ccc2c(c1)B(O)OC2)c1nnn(CC2CCCC2)c1C(F)(F)F` [Example 35, 1-(cyclopentylmethyl)-N-(1-hydroxy-1,3-dihydrobenzo[c][1,2]oxaborol-6-yl)-5-(trifluoromethyl)-1H-1,2,3-triazole-4-carboxamide], the IC50 was not above 1000 nM.

For the compound `CCCn1nnc(C(=O)Nc2ccc3c(c2)B(O)OC3)c1C` [Example 36, N-(1-hydroxy-1,3-dihydrobenzo[c][1,2]oxaborol-6-yl)-5-methyl-1-propyl-1H-1,2,3-triazole-4-carboxamide], the IC50 is not above 1000 nM.

For `Cc1c(C(=O)Nc2ccc3c(c2)B(O)OC3)nnn1C(C)C` [Example 37, N-(1-hydroxy-1,3-dihydrobenzo[c][1,2]oxaborol-6-yl)-1-isopropyl-5-methyl-1H-1,2,3-triazole-4-carboxamide], the IC50 was not above 1000 nM.

Take `Cc1c(C(=O)Nc2ccc3c(c2)B(O)OC3)nnn1C1CC1` [Example 38, 1-cyclopropyl-N-(1-hydroxy-1,3-dihydrobenzo[c][1,2]oxaborol-6-yl)-5-methyl-1H-1,2,3-triazole-4-carboxamide]: the concentration for half-maximal inhibition (IC50) is not above 1000 nM.

As to `Cc1c(C(=O)Nc2ccc3c(c2)B(O)OC3)nnn1CC(F)(F)F` [Example 39, N-(1-hydroxy-1,3-dihydrobenzo[c][1,2]oxaborol-6-yl)-5-methyl-1-(2,2,2-trifluoroethyl)-1H-1,2,3-triazole-4-carboxamide], the concentration for half-maximal inhibition (IC50) is not above 1000 nM.

Take `COCCn1nnc(C(=O)Nc2ccc3c(c2)B(O)OC3)c1C` [Example 40, N-(1-hydroxy-1,3-dihydrobenzo[c][1,2]oxaborol-6-yl)-1-(2-methoxyethyl)-5-methyl-1H-1,2,3-triazole-4-carboxamide]: the IC50 was not above 1000 nM.

Take `Cc1c(C(=O)Nc2ccc3c(c2)B(O)OC3)nnn1C1CCCC1` [Example 41, 1-cyclopentyl-N-(1-hydroxy-1,3-dihydrobenzo[c][1,2]oxaborol-6-yl)-5-methyl-1H-1,2,3-triazole-4-carboxamide]: the concentration for half-maximal inhibition (IC50) was not above 1000 nM.

On to `Cc1c(C(=O)Nc2ccc3c(c2)B(O)OC3)nnn1CC1CC1` [Example 43, 1-(cyclopropylmethyl)-N-(1-hydroxy-1,3-dihydrobenzo[c][1,2]oxaborol-6-yl)-5-methyl-1H-1,2,3-triazole-4-carboxamide], for which the 50% inhibitory concentration (IC50) fell in the range of 10000 to 50000 nM.

`Cc1c(C(=O)Nc2ccc3c(c2)B(O)OC3)nnn1CC1CCCC1` [Example 44, 1-(cyclopentylmethyl)-N-(1-hydroxy-1,3-dihydrobenzo[c][1,2]oxaborol-6-yl)-5-methyl-1H-1,2,3-triazole-4-carboxamide]: the IC50 was in the range of 10000 to 50000 nM.

Consider `O=C(Nc1ccc2c(c1)B(O)OC2)c1nnn(C2CCC2)c1C(F)(F)F` [Example 45, 1-cyclobutyl-N-(1-hydroxy-1,3-dihydrobenzo[c][1,2]oxaborol-6-yl)-5-(trifluoromethyl)-1H-1,2,3-triazole-4-carboxamide], for which the IC50 is 10000 to 50000 nM.

The next assay relates to IL3000 T. congolense (drug sensitive) strain. The experiment in a line: In vitro Alamar Blue 72 h drug sensitivity assay for T. congolense. The note with it: Trypanosoma congolense; bloodstream form, 69 h + 3 h resazurin, 34° C.; classes A-C; read-out: IC50: I Org. Growth T. congolense IL-3000, 3 d. Format: cell-based. Here is the method:
Example 106. In Vitro Alamar Blue 72 h Drug Sensitivity Assay for T. congolense
Compounds were tested in vitro for chemotherapeutic potency against the IL3000 T. congolense (drug sensitive) strain, using the Alamar Blue assay with several modifications. Test compounds were prepared as 10 mg/mL DMSO stocks for each assay run. Compounds were assayed in at least three separate, independent test runs and an 11-point dilution curve was used to determine the IC50 values. Bloodstream form trypanosomes were supported in HMI media containing 20% bovine serum and were incubated with test compounds for 69 h at 34° C. in a humidified atmosphere containing 5% CO2. Thereafter, 10 μL of Resazurin dye (12.5 mg in 100 mL of phosphate buffered saline, Sigma-Aldrich, Buchs, Switzerland) were added for an additional 3 h. Plates were then read using a fluorescent plate reader (Spectramax, Gemini XS, Bucher Biotec, Basel, Switzerland) using an excitation wavelength of 536 nm and an emission wavelength of 588 nm. Data points were averaged to generate sigmoidal dose-response curves and IC50 values were determined using Softmax Pro 5.2 software.
On the technique in general: Alamar Blue is a resazurin reagent that responds to reducing activity.
`CCc1c(C(=O)Nc2ccc3c(c2)B(O)OC3)nnn1-c1ccccn1` [Example 49, 5-ethyl-N-(1-hydroxy-1,3-dihydrobenzo[c][1,2]oxaborol-6-yl)-1-(pyridin-2-yl)-1H-1,2,3-triazole-4-carboxamide]: the half-maximal inhibitory concentration (IC50) is less than 100 nM.

The next assay relates to TdTomato-modified T. cruzi (CL strain) in Vero cells. The experiment in a line: In vitro IC50 measurement of T. cruzi amastigote killing using TdTomato-modified T. cruzi (CL strain). The format is cell-based. Conditions: Trypanosoma cruzi, 72 h, fluorescence, read-out: IC50: I Org. amastigote Growth T. cruzi CL TdTomato, 3 d. Here is the method: Example 112. In Vitro IC50 Measurement of T. cruzi Amastigote Killing Using TdTomato-Modified T. cruzi (CL Strain)
The T. cruzi parasites used in this assay were genetically modified to express Td Tomato fluorescent protein. Vero cells (African green monkey kidney epithelial cells) were harvested from continuous cultures using trypsin and added to the inner 60 wells of 96-well Greiner Bio One plates (plate catalog #655090) at 200 ul/well of […]. Cells were allowed to adhere for 1 h before infection with T. cruzi. T. cruzi for infection were harvested from previously-infected Vero cells, washed, pelleted and resuspended at 5×10^6/mL. 50 uL of parasites were added to each well containing Vero cells. Compounds were prepared from 5 mM stock concentrations in DMSO to final concentrations in wells ranging from 5 uM to 5 nM. Wells were provided for negative controls, lacking compounds. Plates were placed into a 37° C. incubator for 20 min, then a “Day 0” reading was taken on a Synergy H4 plate reader to record initial fluorescence levels, at 544 (excitation) and 612 nm (emission). 96-well plates were placed in Tupperware containers with wet paper towels and incubated at 37° C. incubator for 72 h. After 72 h plates were reread (Day 3 reading) and data analyzed using Excel and/or Graphpad software. Day 0 fluorescence was subtracted from Day 3 to remove input parasite fluorescence. Growth curves are generated and 50% and 90% inhibitory concentrations are determined by nonlinear regression analysis.
For `CCc1c(C(=O)Nc2ccc3c(c2)B(O)OC3)nnn1-c1ccccn1` [Example 49, 5-ethyl-N-(1-hydroxy-1,3-dihydrobenzo[c][1,2]oxaborol-6-yl)-1-(pyridin-2-yl)-1H-1,2,3-triazole-4-carboxamide], the half-inhibitory concentration (IC50) was less than 600 nM.
